{"source": "patent US11377444B2", "about": "“Pyridopyrimidine compounds acting as mTORC 1/2 dual inhibitors” (MEDSHINE DISCOVERY INC., priority 2017, dated 2022)", "key": {"[1]": {"test_system": "human breast cancer MCF-7 cell subcutaneous xenograft tumor", "assay": "In vivo pharmacodynamic study, MCF-7 subcutaneous xenograft tumor", "design": "species or system BALB/c nude mouse", "conditions": "for Tumor volume (27th day): mean ± SEM; for Tumor volume (day 0): day 0, mean ± SEM", "source_text": "Experimental Embodiment 4: In Vivo Pharmacodynamic Study on BALB/c Nude Mouse Model of Human Breast Cancer MCF-7 Cell Subcutaneous Xenograft Tumor\nExperimental objective: To study the efficacy of the test compounds on human breast cancer MCF-7 cell subcutaneous xenograft tumor in BALB/c nude mouse model.\nExperimental animals: Female BALB/c nude mice, 6-8 weeks old, weighing 18-22 grams; supplier: Shanghai Xipuer-Bikai Experimental Animal Co., Ltd.\nHuman breast cancer MCF-7 cells (ECACC, article number: 86012803) were subjected to in vitro monolayer culture under the conditions of EMEM (EBSS)+2 mM […]+1% Non Essential Amino Acids (NEAA) medium containing 10% fetal bovine serum, 100 U/mL penicillin and 100 μg/mL streptomycin, and 37° C., 5% CO2incubator. Conventional digestion treatment was carried out with trypsin-EDTA twice a week for cell passage. When the cell saturation was 80%-90%, and the quantity reached the requirement, the cells were collected, counted and inoculated.\nEstrogen tablets (0.18 mg) were inoculated into the left back of each mouse three days before cell inoculation, 0.2 mL (1×10^7) MCF-7 cells (added with matrigel, volume ratio of 1:1) were subcutaneously inoculated into the right back of each mouse. When the average volume of tumor reached 142 mm^3, the mice were divided into groups and began to be administrated.\nThe test compounds were prepared into clear solutions of 0.75 mg/mL, 1.5 mg/mL and 3 mg/mL. The vehicles were 5% DMSO+30% polyethylene glycol 300+65% water.\nThe experimental indexes were used for investigating whether the growth of the tumors had been inhibited, delayed or cured. The diameters of the tumors were measured with vernier calipers twice a week. The calculation formula of the tumor volume was: V=0.5a×b^2, wherein a and b represent the long and short diameters of the tumor respectively.\nThe antitumor efficacy of the compound was evaluated by TGI (%) or relative tumor proliferation rate T/C (%). TGI (%) reflects the inhibition rate of the tumor growth. Calculation of TGI (%): TGI (%)=[1−(average tumor volume at the end of administration in the treatment group−average tumor volume at the beginning of administration in the treatment group)/(average tumor volume at the end of treatment in the vehicle control group−average tumor volume at the beginning of treatment in the vehicle control group)]×[…].\nRelative tumor proliferation rate T/C (%): The calculation formula was as follows: T/C %=TRTV/CRTV at the beginning of the treatment (TRTV: treatment group RTV; CRTV: negative control group RTV). The relative tumor volume (RTV) was calculated according to the results of tumor measurement. The calculation formula was RTV=Vt/V0, wherein V0 is the average tumor volume measured during administration of the groups (i.e. d0), and Vt is the average tumor volume during a certain measurement, the TRTV and CRTV were taken on the same day.\nStatistical analysis included the mean and standard error (SEM) of tumor volume at each time point in each group. […] The comparison between two groups was analyzed by T-test, and the comparison between three or more groups was analyzed by one-way ANOVA."}, "[2]": {"test_system": "N87 cell", "assay": "Cell proliferation inhibitory activity (Cell-Titer-Glo), N87", "type": "cell-based", "conditions": "72 h; 3 days incubation", "source_text": "Experimental Embodiment 2: Evaluation of Cell Proliferation Inhibitory Activity\nExperiment objective: To detect cell proliferation inhibitory activity of the tested compounds.\nExperimental principle: The luciferase in the Cell-Titer-Glo reagent produces oxyluciferin using luciferin, oxygen and ATP as reaction substrates, and releases energy in the form of light. Since the reaction of luciferase requires ATP, the total amount of light generated by the reaction is proportional to the total amount of ATP that reflects cell viability.\nCell lines: MCF-7 cell line […], HT-29 cell line (ATCC-HTB-38), OE21 (ECACC-96062201), NCI-N87 cell line (ATCC-CRL-5822)\nCell culture medium: (RPMI 1640 culture medium (Invitrogen #1868546; 10% serum Invitrogen #1804958; L-glutamine 1×, Invitrogen #1830863; dual antibiotic Hyclone #J170012))\nCell Titer-Glo® Luminescent Cell Viability Assay Kit (Promega #G7573)\nThe cells were inoculated in a 384- or 96-well plate with a density of 1000 cells per well and 25 μL per well according to the instructions of the cell inoculating plate. The edge wells were not inoculated with cells, and was supplemented with […].\n(i) The mother solution of the compound was 10 mM, and diluted with DMSO to an initial concentration of 4 mM. The compound was added to the compound mother solution, 9 μL per well.\n(ii) The compound was diluted with ECHO liquid-handling workstation. Each well of the cell plate was added with 125 nL compound. Each well of the cell wells in 2nd column and 23rd column was added with 125 nL DMSO, and each of the PBS wells in 1st column and 24th column was added with 125 nL DMSO.\n(iii) Each well of the cell plate was supplemented with 25 μL culture medium, the final volume in each well of the cell plate was 50 μL, […] 3 times dilution, 10 concentrations, each concentration was duplicated in left and right wells, the final DMSO concentration was 0.25%.\n2.3. After addition of the compound, centrifugation was performed at 1000 rpm for 1 min, and the cell plate was placed in a 37° C., 5% CO2 incubator for 3 days.\nThe cell plate was taken out from the incubator and equilibrated at room temperature for 30 minutes. 25 μL Cell-Titer-Glo reagent was added to each well, shaken for one minute to mix thoroughly, centrifuged at 1000 rpm for 1 minute. After 10 minutes, the plate was read on PerkinElmer Envision with a […] reading time was set at 0.2 second."}}, "note": "Several values for one entry are separate records, joined by “and”; a condition that tells them apart may be missing. Equal entries are not always repeated."}
{"smiles": "CNC(=O)c1cccc(-c2ccc3c(N4CCOC[C@@H]4C)nc(N4CCOC[C@@H]4C)nc3n2)c1", "note": "[AZD2014, reference compound]", "values": [{"measurement": "T/C", "setting": "[1]; 7.5 mg/kg", "result": 53.95, "unit": "%"}, {"measurement": "TGI", "setting": "[1]; 7.5 mg/kg", "result": 61.10, "unit": "%"}, {"measurement": "RTV (27th day)", "setting": "[1]; 7.5 mg/kg", "result": "2.25 ± 0.47"}, {"measurement": "Tumor volume (27th day)", "setting": "[1]; 7.5 mg/kg", "result": "315 ± 65", "unit": "mm^3"}, {"measurement": "Tumor volume (day 0)", "setting": "[1]; 7.5 mg/kg", "result": "142 ± 9", "unit": "mm^3"}, {"measurement": "T/C", "setting": "[1]; 15 mg/kg", "result": 20.36, "unit": "%"}, {"measurement": "TGI", "setting": "[1]; 15 mg/kg", "result": "104% and 104.37%"}, {"measurement": "difference compared with the vehicle control group", "setting": "[1]; 15 mg/kg", "result": "significant difference"}, {"measurement": "RTV (27th day)", "setting": "[1]; 15 mg/kg", "result": "0.85 ± 0.26"}, {"measurement": "Tumor volume (27th day)", "setting": "[1]; 15 mg/kg", "result": "121 ± 41", "unit": "mm^3"}, {"measurement": "Tumor volume (day 0)", "setting": "[1]; 15 mg/kg", "result": "141 ± 8", "unit": "mm^3"}, {"measurement": "IC50", "setting": "[2]", "result": 59, "unit": "nM"}]}
{"smiles": "CNC(=O)c1cccc(-c2ccc3c(N4CCOC[C@@H]4C)nc(N4CCOC5(CCC5)C4)nc3n2)c1", "note": "[Embodiment 23]", "values": [{"measurement": "T/C", "setting": "[1]; 7.5 mg/kg", "result": 83.52, "unit": "%"}, {"measurement": "TGI", "setting": "[1]; 7.5 mg/kg", "result": 22.14, "unit": "%"}, {"measurement": "RTV (27th day)", "setting": "[1]; 7.5 mg/kg", "result": "3.48 ± 0.37"}, {"measurement": "Tumor volume (27th day)", "setting": "[1]; 7.5 mg/kg", "result": "489 ± 51", "unit": "mm^3"}, {"measurement": "Tumor volume (day 0)", "setting": "[1]; 7.5 mg/kg", "result": "142 ± 9", "unit": "mm^3"}, {"measurement": "T/C", "setting": "[1]; 15 mg/kg", "result": 54.13, "unit": "%"}, {"measurement": "TGI", "setting": "[1]; 15 mg/kg", "result": 59.05, "unit": "%"}, {"measurement": "RTV (27th day)", "setting": "[1]; 15 mg/kg", "result": "2.26 ± 0.48"}, {"measurement": "Tumor volume (27th day)", "setting": "[1]; 15 mg/kg", "result": "324 ± 79", "unit": "mm^3"}, {"measurement": "Tumor volume (day 0)", "setting": "[1]; 15 mg/kg", "result": "141 ± 9", "unit": "mm^3"}, {"measurement": "T/C", "setting": "[1]; 30 mg/kg", "result": 25.50, "unit": "%"}, {"measurement": "TGI", "setting": "[1]; 30 mg/kg", "result": 98.33, "unit": "%"}, {"measurement": "difference compared with the vehicle control group", "setting": "[1]; 30 mg/kg", "result": "significant difference"}, {"measurement": "RTV (27th day)", "setting": "[1]; 30 mg/kg", "result": "1.06 ± 0.17"}, {"measurement": "Tumor volume (27th day)", "setting": "[1]; 30 mg/kg", "result": "150 ± 26", "unit": "mm^3"}, {"measurement": "Tumor volume (day 0)", "setting": "[1]; 30 mg/kg", "result": "141 ± 8", "unit": "mm^3"}, {"measurement": "TGI", "setting": "[1]; 30 mg/kg, listed as embodiment 23", "result": 98, "unit": "%"}, {"measurement": "IC50", "setting": "[2]", "result": 94, "unit": "nM"}]}
{"smiles": "C[C@H]1COCCN1c1nc(N2CCOC3(CC3)C2)nc2nc(-c3cccc(C(N)=O)c3)ccc12", "note": "[Embodiment 51]", "values": [{"measurement": "T/C", "setting": "[1]; 15 mg/kg", "result": 57.84, "unit": "%"}, {"measurement": "TGI", "setting": "[1]; 15 mg/kg", "result": 59.27, "unit": "%"}, {"measurement": "RTV (27th day)", "setting": "[1]; 15 mg/kg", "result": "2.41 ± 0.36"}, {"measurement": "Tumor volume (27th day)", "setting": "[1]; 15 mg/kg", "result": "323 ± 25", "unit": "mm^3"}, {"measurement": "Tumor volume (day 0)", "setting": "[1]; 15 mg/kg", "result": "142 ± 11", "unit": "mm^3"}, {"measurement": "IC50", "setting": "[2]", "result": 59, "unit": "nM"}]}
